The nature of data set [1]: physchem. The settings on record: buffer, pH 7.4.
The nature of data set [2]: AUC (0 to infinity) in Sprague-Dawley rat at 1 mg/kg, iv. It counts as ADME, organism-based. To be noted: plasma. The arrangement: time infinity, dose 1 mg/kg, route intravenous.
The nature of data set [3]: AUC (0 to infinity) in Sprague-Dawley rat at 3 mg/kg. It is filed as ADME, organism-based. The arrangement: dose 3 mg/kg, time infinity. To be noted: plasma.
Data set [4] can be described thus: Plasma clearance in Sprague-Dawley rat at 1 mg/kg, iv. It counts as ADME, organism-based. On the set-up: dose 1 mg/kg, route intravenous.
A short description of data set [5]: Half life in Sprague-Dawley rat at 1 mg/kg, iv. On the set-up: dose 1 mg/kg, route intravenous. It counts as ADME, organism-based. The settings on record: in vivo.
Data set [6] in a line: Volume of distribution at steady state in Sprague-Dawley rat at 1 mg/kg, iv. It counts as ADME, organism-based. The settings on record: in vivo, read-out: Vdss. On the set-up: dose 1 mg/kg, route intravenous.
A short description of data set [7]: Cmax in Sprague-Dawley rat at 3 mg/kg. It is filed as ADME, organism-based. The settings on record: in vivo. The arrangement: dose 3 mg/kg.
The nature of data set [8]: Tmax in Sprague-Dawley rat at 3 mg/kg. It is filed as ADME, organism-based. On the set-up: dose 3 mg/kg. The settings on record: in vivo.
The nature of data set [9]: Oral bioavailability in Sprague-Dawley rat at 3 mg/kg. It counts as ADME, organism-based. To be noted: in vivo.

In [1], `Cc1cccc(C#N)c1Oc1ccc2ncnc(Nc3ccn(C)n3)c2c1` yielded a logD of 3.4.

As for `Cn1ccc(Nc2ncnc3ccc(Oc4ccccn4)cc23)n1`, the log distribution coefficient (logD) in data set [1] worked out at 2.1.

In data set [1], `Cn1ccc(Nc2ncnc3ccc(Oc4ncccc4F)cc23)n1` came in with a pH-dependent lipophilicity (logD) of 2.4.

In turn, `Cn1ccc(Nc2ncnc3ccc(Oc4ncccc4Cl)cc23)n1` registered a logD in data set [1] of 2.9.

In data set [1], `CS(=O)(=O)c1cccc(F)c1Oc1ccc2ncnc(Nc3cccnn3)c2c1` showed a logD of 2.

Regarding `Cc1csc(Nc2ncnc3ccc(Oc4ccccc4S(C)(=O)=O)cc23)n1`, the log distribution coefficient (logD) in data set [1] worked out at 4.3.

`Cc1csc(Nc2ncnc3ccc(Oc4ccccc4F)cc23)n1`: in [1], the logD worked out at 5.8.

Consider `Cc1csc(Nc2ncnc3ccc(Oc4ccc(F)cc4)cc23)n1`, for which the logD in data set [1] was 5.8.

`Cc1cccc(S(C)(=O)=O)c1Oc1ccc2ncnc(Nc3ccn(C)n3)c2c1` returned a log distribution coefficient (logD) in data set [1] of 2.1.

In turn, `Cn1ccc(Nc2ncnc3ccc(Oc4ccncn4)cc23)n1` had a logD in data set [1] of 1.7.

Regarding `Cn1ccc(Nc2ncnc3ccc(Oc4c(Cl)cccc4S(C)(=O)=O)cc23)n1`, the log distribution coefficient (logD) in [1] was 2.3.

In [1], `Cn1ccc(Nc2ncnc3ccc(Oc4ccccc4S(C)(=O)=O)cc23)n1` returned a logD of 1.9.

Take `Cn1ccc(Nc2ncnc3ccc(Oc4c(F)cccc4F)cc23)n1`: in data set [1], the logD was 3.7.

The compound `CS(=O)(=O)c1cccc(F)c1Oc1ccc2ncnc(Nc3cc[nH]n3)c2c1` had a log distribution coefficient (logD) in [1] of 1.8.

`Cn1ccc(Nc2ncnc3ccc(Oc4ncccc4CO)cc23)n1` came in with a logD in data set [1] of 1.7.

With `Cn1ccc(Nc2ncnc3ccc(Oc4c(F)cccc4S(C)(=O)=O)cc23)n1`, the results for the AUC(0-inf) in data set [2] and in data set [3] were 6.3 µM·h and 13.3 µM·h, respectively. For the same compound, the clearance in data set [4] is 6.8 mL/min/kg. This compound gave a half-life in data set [5] of 1.3 h. Besides, the Vd in data set [6] stood at 0.5 L/kg. In addition, in data set [7], the highest concentration (Cmax) was 5.8 µM. In addition, in [8], the Tmax stood at 0.9 h. This compound also displayed a bioavailability in data set [9] of 71%. The compound further yielded a logD in data set [1] of 1.9.

In data set [1], `Cc1nsc(Nc2ncnc3ccc(Oc4c(F)cccc4S(C)(=O)=O)cc23)n1` registered a pH-dependent lipophilicity (logD) of 3.1.

In [1], `CS(=O)(=O)c1cccc(F)c1Oc1ccc2ncnc(Nc3ccccn3)c2c1` displayed a log distribution coefficient (logD) of 3.6.

Consider `Cc1cnc(Nc2ncnc3ccc(Oc4c(F)cccc4S(C)(=O)=O)cc23)cn1`, for which the logD in data set [1] was 2.5.

Take `CS(=O)(=O)c1cccc(F)c1Oc1ccc2ncnc(Nc3cnccn3)c2c1`: the logD in [1] came out at 2.2.

In data set [1], `CN(C)C(=O)c1cccnc1Oc1ccc2ncnc(Nc3ccn(C)n3)c2c1` registered a pH-dependent lipophilicity (logD) of 1.4.

In turn, `CCn1ccc(Nc2ncnc3ccc(Oc4c(F)cccc4S(C)(=O)=O)cc23)n1` showed a log distribution coefficient (logD) in data set [1] of 2.4.

Compound `Cn1ccc(Nc2ncnc3ccc(Oc4ncccc4Br)cc23)n1` returned a log distribution coefficient (logD) in [1] of 3.4.

`Cn1ccc(Nc2ncnc3ccc(Oc4ccc(F)cc4F)cc23)n1` came in with a pH-dependent lipophilicity (logD) in data set [1] of 3.6.

Usually logD stands for the decadic logarithm of the distribution of all forms, ionised or not, between an organic phase and buffer at a given pH. In general, AUC(0-inf) refers to the area under the concentration-time curve extrapolated to infinity. A low value points to less exposure. For orientation: clearance means a measure of how efficiently the substance is removed, as volume per time. A higher clearance goes with a high capacity for elimination. As a reminder, the half-life is how long it takes for the measured level to halve. Higher therefore signals slow decline. The term Cmax denotes the maximum level reached in the sampled fluid or tissue. Usually Tmax stands for the time at which the peak concentration occurs. As a reminder, the bioavailability is dose-corrected exposure relative to a reference, in per cent. A low value points to little systemic uptake.
